Data: patent US5776925A, “Methods for cancer chemosensitization” (Pharmacyclics, Inc., priority 1996, dated 1998)

Legend:
EMT6 tumors [1] = tested on: EMT6 tumors
EMT6 tumors [2] = test: in vivo chemosensitization of cyclophosphamide, subcutaneous EMT6 tumors in Balb/c mice; parameters: species or system murine (Balb/c mice); details: cyclophosphamide 40 mg/kg followed by GdT2BET 40 μmol/kg 5 min, or 5 min and 5 hr later; once a week for three weeks
Procedure: In vivo studies were carried out using Balb/c mice with EMT6 tumors implanted subcutaneously as described in Example 2. 4-Hydroxy cyclophosphamide was dissolved at a concentration of 5 mg/mL in 0.9% NaCl. GdT2BET was dissolved at a concentration of 2 mM in 5% mannitol. EMT6 tumors were implanted subcutaneously in the right flanks of Balb/c mice; 9 mice were in each group. Group #1 received cyclophosphamide (CY) at 40 mg/kg; group #2 received cyclophosphamide (CY) at 40 mg/kg followed by GdT2BET at 40 μmol/kg 5 min later; and group #3 received cyclophosphamide (CY) at 40 mg/kg followed by GdT2BET at 40 μmol/kg 5 min and 5 hr later. This protocol was repeated once a week for three weeks.

MES-SA cells [3] = tested on: MES-SA cells
MES-SA/Dx5 cells = test: chemosensitization effect in doxorubicin-selected mdr1 variant; format: cell-based, human
MES-SA cells [4] = format: cell-based, human
[5] = tested on: MDR gene in bone marrow cells; details: MDR1-transgenic mouse, simultaneous administration (Mickisch, 1991); cited from earlier work
[6] = in vivo; cited from earlier work

CC(=O)[O-].CC(=O)[O-].CCc1c(CC)c2cc3nc(cnc4cc(OCCOCCOCCOC)c(OCCOCCOCCOC)cc4ncc4nc(cc1[n-]2)C(CCCO)=C4C)C(C)=C3CCCO.O.[Gd+3] [GdT2BET]
cures (no evidence of disease at end of study) (EMT6 tumors [1]; ADR+2GdT2BET group (GdT2BET 5 min and 5 hr post ADR), first study): Two | cures, further study (EMT6 tumors [1]; ADR+2GdT2BET group, further study): two | adriamycin cytotoxicity (tumor) (EMT6 tumors [1]; adriamycin 7.5 mg/kg iv followed by GdT2BET 40 μmol/kg iv, once a week for three weeks): clear enhancement of adriamycin cytotoxicity | p, ADR+2GdT2BET versus ADR only (EMT6 tumors [1]; after day 9, FIG. 1, n=14): < 0.05 | cytotoxicity in further study (EMT6 tumors [1]; further study: ADR+2GdT2BET and three-step texaphyrin/ADR/texaphyrin): enhanced cytotoxicity | chemosensitization with cyclophosphamide in vivo (EMT6 tumors [2]): little chemosensitization occurred | enhancement of cytotoxicity of bleomycin (MES-SA cells [3]): seen at all concentrations of bleomycin tested and at all three concentrations of texaphyrin tested | percent survival of the cells (MES-SA cells [3]; with bleomycin, 50 μM, 100 μM, and 150 μM GdT2BET, 48 hr): substantially less in the presence of texaphyrin | mechanism of action of chemosensitization (MES-SA/Dx5 cells; MES-SA/Dx5 compared with MES-SA): P-glycoprotein-independent

N.N.[Cl][Pt][Cl] [cisplatin]
effectiveness in the presence of texaphyrin (MES-SA cells [4]): effective | effectiveness in the presence of texaphyrin (MES-SA/Dx5 cells): effective

COc1cccc2c1C(=O)c1c(O)c3c(c(O)c1C2=O)C[C@@](O)(C(=O)CO)C[C@@H]3O[C@H]1C[C@H](N)[C@H](O)[C@H](C)O1 [doxorubicin]
effectiveness in the presence of texaphyrin (MES-SA cells [4]): effective | effectiveness in the presence of texaphyrin (MES-SA/Dx5 cells): effective

COc1cc([C@@H]2c3cc4c(cc3[C@@H](O[C@@H]3O[C@@H]5CO[C@@H](C)O[C@H]5[C@H](O)[C@H]3O)[C@H]3COC(=O)[C@H]23)OCO4)cc(OC)c1O [etoposide]
effectiveness in the presence of texaphyrin (MES-SA cells [4]): effective | IC50 difference relative to control / cytotoxicity in the presence of texaphyrin (FIG. 2) (MES-SA cells [3]): enhanced cytotoxicity | effectiveness in the presence of texaphyrin (MES-SA/Dx5 cells): effective

CC(=O)O[C@H]1C(=O)[C@@]2(C)[C@H]([C@H](OC(=O)c3ccccc3)[C@]3(O)C[C@H](OC(=O)[C@H](O)[C@@H](NC(=O)c4ccccc4)c4ccccc4)C(C)=C1C3(C)C)[C@]1(OC(C)=O)CO[C@@H]1C[C@@H]2O [paclitaxel]
IC50 difference relative to control / cytotoxicity in the presence of texaphyrin (FIG. 2) (MES-SA cells [3]): enhanced cytotoxicity

C=C[C@H]1C[N@@]2CC[C@H]1C[C@H]2[C@H](O)c1ccnc2ccc(OC)cc12 [quinine]
reversal of drug resistance [5]: circumvented in a dose-dependent manner

CC/C(=C(\c1ccccc1)c1ccc(OCCN(C)C)cc1)c1ccccc1 [tamoxifen]
dose-limiting toxicities as chemosensitizer [6]: attributed to the inherent toxicity of the chemosensitizer and not due to enhanced chemotherapy toxicity

CN1CCN(CCCN2c3ccccc3Sc3ccc(C(F)(F)F)cc32)CC1 [trifluoperazine]
dose-limiting toxicities as chemosensitizer [6]: attributed to the inherent toxicity of the chemosensitizer and not due to enhanced chemotherapy toxicity

COc1ccc(CCN(C)CCCC(C#N)(c2ccc(OC)c(OC)c2)C(C)C)cc1OC (centres unmarked) [verapamil]
reversal of drug resistance [5]: circumvented in a dose-dependent manner

bleomycin
effectiveness in the presence of texaphyrin (MES-SA cells [4]): effective | effectiveness in the presence of texaphyrin (MES-SA/Dx5 cells): effective
